{"source": "patent US7115258B2", "about": "“Vesicular monoamine transporter gene therapy in parkinson's disease” (priority 1998, dated 2006)", "system": "dopamine release", "assay": "Release of stored dopamine from PFVMAA cells", "assay_type": "cell-based, rat", "conditions": "20 μM A23187 in physiological media, 20 minutes", "experimental": "FIG. 3A and FIG. 3B. Release of stored dopamine from PFVMAA. (FIG. 3A) Time course of dopamine release from PFVMAA cells that were preincubated with 1 μM of L-DOPA for 2 hours to store dopamine (intracellular: open bar). After pre-incubation, the media was replaced with fresh media without L-DOPA and dopamine levels in the media (solid bar) were measured at one hour intervals. (FIG. 3B) The dopamine levels in the media (solid bar) and in the cell pellets (open bars) of PFVMAA cells in different calcium conditions. Cells were preincubated with 1 μM L-DOPA in the media for 3 hours, which were replaced with fresh physiological media (control), physiological media with 20 μM A23187 (Sigma), or by calcium-free media with 10 mM EGTA for 20 minutes of further incubation. Data represent the mean±SEM (n=3). n.d., nondetectable levels. n.s., no significant, * p<0.01, Student t-test analysis.\nCatecholamine measurements were done in DMEM media (1 ml in each well) except for the experiments on Ca^++ effect which were done in physiological incubation medium consisting of 135 mM NaCl, 3 mM KCl, 2 mM CaCl2, 2 mM MgCl2, 10 mM glucose, 200 μM ascorbic acid, and 10 mM HEPES, pH 7.3.\nTo investigate the mechanism of dopamine release in the PFVMAA cells, intracellular calcium was manipulated by using calcium-free media and calcium ionophore. […]"}
{"smiles": "CNc1ccc2oc(C[C@H]3O[C@@]4(CC[C@H]3C)O[C@H]([C@H](C)C(=O)c3ccc[nH]3)[C@H](C)C[C@H]4C)nc2c1C(=O)O", "note": "[calcium ionophore, A23187]", "values": [{"measurement": "effect on dopamine release from PFVMAA cells", "result": "trend for increased release of dopamine"}]}
